Results as given in US20140127288A1, “LIPOSOME CONTAINING PYRROLOQUINOLINE QUINONE AND SUGAR” (MITSUBISHI GAS CHEMICAL COMPANY, INC., priority 2011, published 2014).

Test system: Chinese hamster ovary cells (CHO-DHFR)
Assay: Proliferation study (WST assay)
Type: cell-based
Conditions: vs cells treated with culture medium alone; one day incubation
Procedure: Chinese hamster ovary cells (CHO-DHFR; obtained from Dainippon Sumitomo Pharma Co., Ltd.) was cultured in the culture medium, α-MEM+10% fetal calf serum, in an atmosphere of 5% CO2 at 37° C. A 96-well microplate (IWAKI & Co., Ltd.) was used and cells were added to each well at 5000 cells with 100 μl of the culture medium, and the microplate was incubated overnight. After removing the culture medium, a new culture medium containing the liposome composition prepared in Examples 1 to 4 and Comparative Examples 1 to 3 at a predetermined concentration was added to each well. After one day incubation, a test solution in a WST Assay Kit was reacted for 1 hour according to a procedure of the Kit (Dojindo Laboratories), and the absorbance of each well was measured at 450 nm. In WST Assay, the absorbance obtained is proportional to the number of live cells. The liposome compositions prepared in Examples 1 to 4 and Comparative Examples 1 to 3 and […] (for Comparative Example 4) were used as samples, and the samples were diluted by the culture medium and subjected to a test. The concentrations used in the test were 500, 250, 125, 62, 31, 16, 8, 4, 2, 1, 0.5, and 0 μM. In Comparative Example 2, the concentration of the liposome composition was used as the test concentration of the sample. The test was conducted for each sample twice and the average was calculated. […]

`O=C(O)c1cc(C(=O)O)c2c(n1)C(=O)C(=O)c1cc(C(=O)O)[nH]c1-2` [Comparative Example 4, Pyrroloquinoline quinone disodium] was tested, and the “Concentration of growth inhibition (total cell number decreases by 10%)” value was 500 µM.
